Test results reported in patent publication US9296734B2 (AMGEN INC., priority 2013, dated 2016).
pIC50: −log10 of the molar value. Read-outs that look alike come from different tables or passages of the source.

Key:
[1] = biological target: Beta Secretase enzyme (BACE) (Homo sapiens (Human), UniProt P56817); assay: In vitro enzymatic BACE FRET assay; assay type: biochemical; conditions: read-out: BACE 1 FRET assay IC50
In short: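 A quenched fluorophore-peptide spanning the BACE cleavage site served as substrate at 50 nM, with one-hour incubation in pH 4.2 acetate buffer containing 100 uM genapol and 10% DMSO final. Fluorescence was measured after quenching with Tris to neutral pH.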

[2] = test system: Aβ40 in conditioned medium of cells stably expressing Amyloid Precursor Protein (APP); assay: In vitro BACE cell-based assay (Aβ40 sandwich ELISA); conditions: Homo sapiens
In short: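 Aβ40 in supernatants was measured by time-resolved fluorescence sandwich ELISA using pAb40 capture and biotinylated 6E10 detection, with antibody incubations at 4 °C. Stable APP cells were exposed to compounds for 24 h in a 10-point series (top dose 100 or 10 µM, 0.1% DMSO). IC50 was fitted from the concentration-response.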

Cathepsin D (Cat D) = Cathepsin D (Cat D) (Homo sapiens (Human), UniProt P07339); assay: In vitro enzymatic Cathepsin D (Cat D) FRET assay; assay type: biochemical; conditions: read-out: CatD IC50
In short: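 CHO-expressed recombinant Cat D cleaves a fluorophore/quencher FRET peptide (20 nM) in 0.05 M citrate pH 3.5, 5 mM CHAPS, 10% DMSO final, over 1 h. Tris addition neutralizes pH to stop the reaction; fluorescence read at excitation 500 nm, emission 580 nm.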

[3] = average IC50, BACE enzyme assay
[4] = HEK293, average IC50, HEK cell assay, read-out: HEK cell assay IC50
[5] = average IC50, cathepsin D enzyme assay
[6] = HEK293, read-out: HEK cell assay IC50
[7] = HEK293, HEK cells, average, read-out: HEK cell assay IC50

Sequence of Beta Secretase enzyme (BACE) (P56817 46-501): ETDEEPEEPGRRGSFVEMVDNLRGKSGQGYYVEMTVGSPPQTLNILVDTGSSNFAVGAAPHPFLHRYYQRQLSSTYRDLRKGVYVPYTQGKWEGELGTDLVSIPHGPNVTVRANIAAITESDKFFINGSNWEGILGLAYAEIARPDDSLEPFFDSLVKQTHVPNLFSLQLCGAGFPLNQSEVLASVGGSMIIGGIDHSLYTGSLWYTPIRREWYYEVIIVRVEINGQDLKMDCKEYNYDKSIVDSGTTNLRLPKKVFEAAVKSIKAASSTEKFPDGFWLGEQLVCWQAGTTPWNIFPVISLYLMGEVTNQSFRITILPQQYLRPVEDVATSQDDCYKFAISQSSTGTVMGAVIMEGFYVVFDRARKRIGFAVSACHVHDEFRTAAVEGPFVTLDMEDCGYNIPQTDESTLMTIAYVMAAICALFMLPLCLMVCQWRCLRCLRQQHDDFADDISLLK
Sequence of Cathepsin D (Cat D) (P07339 65-412, species assumed): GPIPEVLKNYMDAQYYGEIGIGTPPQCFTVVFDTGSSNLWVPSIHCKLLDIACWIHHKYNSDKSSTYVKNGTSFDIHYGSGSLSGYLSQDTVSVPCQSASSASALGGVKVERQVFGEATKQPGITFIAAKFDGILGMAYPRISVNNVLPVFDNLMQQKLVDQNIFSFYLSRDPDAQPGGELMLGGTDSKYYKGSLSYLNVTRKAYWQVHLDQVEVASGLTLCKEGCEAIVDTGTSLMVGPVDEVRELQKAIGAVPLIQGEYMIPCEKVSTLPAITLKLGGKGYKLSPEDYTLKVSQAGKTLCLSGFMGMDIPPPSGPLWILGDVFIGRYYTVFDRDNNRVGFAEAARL

pIC50 [1, 3]	pIC50 [2, 4]	pIC50 (Cathepsin D (Cat D); [5])	pIC50 ([1]; average)	pIC50 [2, 7]	pIC50 (Cathepsin D (Cat D); average)	SMILES	other results
7.85	7.44	< 3.40	–	–	–	C[C@@]1(c2cc(Nc3nccc4cc(C#N)cnc34)cc(F)c2F)C[C@@H](C(F)(F)F)OC(N)=N1 [Example 180, 8-((3-((4S,6S)-2-amino-4-methyl-6-(trifluoromethyl)-5,6-dihydro-4H-1,3-oxazin-4-yl)-4,5-difluorophenyl)amino)-1,7-naphthyridine-3-carbonitrile]	–
4.94	< 4.81	2.46	–	–	–	NC1=N[C@](CF)(c2cc(C(=O)NC3CC3)ccc2F)C[C@@H](C(F)(F)F)O1 [Example 182, 3-((4S,6S)-2-amino-4-(fluoromethyl)-6-(trifluoromethyl)-5,6-dihydro-4H-1,3-oxazin-4-yl)-N-cyclopropyl-4-fluorobenzamide]	–
–	–	–	7.68	7.82	< 3.40	C[C@@]1(c2cc(NC(=O)c3cnc(OCC(F)(F)F)cn3)cc(F)c2F)C[C@@H](C(F)(F)F)OC(N)=N1 [Example 186, N-(3-((4S,6S)-2-amino-4-methyl-6-(trifluoromethyl)-5,6-dihydro-4H-1,3-oxazin-4-yl)-4,5-difluorophenyl)-5-(2,2,2-trifluoroethoxy)pyrazine-2-carboxamide]	–
–	–	–	7.12	7.82	< 3.40	C[C@@]1(c2cc(NC(=O)c3ncc(C(F)(F)F)cc3Cl)cc(F)c2F)C[C@@H](C(F)(F)F)OC(N)=N1 [Example 187, N-(3-((4S,6S)-2-amino-4-methyl-6-(trifluoromethyl)-5,6-dihydro-4H-1,3-oxazin-4-yl)-4,5-difluorophenyl)-3-chloro-5-(trifluoromethyl)picolinamide]	–
–	–	–	8.52	8.52	3.11	CC#CCOc1ccc(C(=O)Nc2cc(F)c(F)c([C@]3(C)C[C@@H](C(F)(F)F)OC(N)=N3)c2)nc1 [Example 189, N-(3-((4S,6S)-2-amino-4-methyl-6-(trifluoromethyl)-5,6-dihydro-4H-1,3-oxazin-4-yl)-4,5-difluorophenyl)-5-(but-2-yn-1-yloxy)picolinamide]	–
< 4.40	< 4.81	< 3.40	8.70	8.70	3.30	C#CCOc1cnc(C(=O)Nc2cc(F)c(F)c([C@]3(C)C[C@@H](C(F)(F)F)OC(N)=N3)c2)cn1 [Example 190, N-(3-((4S,6S)-2-amino-4-methyl-6-(trifluoromethyl)-5,6-dihydro-4H-1,3-oxazin-4-yl)-4,5-difluorophenyl)-5-(prop-2-yn-1-yloxy)pyrazine-2-carboxamide]	–
–	–	–	7.01	6.26	3.29	Cc1cc(OCC2CC2)cnc1C(=O)Nc1cc(F)c(F)c([C@]2(C)C[C@@H](C(F)(F)F)OC(N)=N2)c1 [Example 191, N-(3-((4S,6S)-2-amino-4-methyl-6-(trifluoromethyl)-5,6-dihydro-4H-1,3-oxazin-4-yl)-4,5-difluorophenyl)-5-(cyclopropylmethoxy)-3-methylpicolinamide]	–
–	–	–	7.12	7.74	2.90	C[C@@]1(c2cc(NC(=O)c3cnc(C(F)F)cn3)cc(F)c2F)C[C@@H](C(F)(F)F)OC(N)=N1 [Example 193, N-(3-((4S,6S)-2-amino-4-methyl-6-(trifluoromethyl)-5,6-dihydro-4H-1,3-oxazin-4-yl)-4,5-difluorophenyl)-5-(difluoromethyl)pyrazine-2-carboxamide]	pIC50 ([1]; average IC50): 7.34; pIC50 ([2]; HEK293, average IC50, HEK cells, read-out: HEK cell assay IC50): 7.67; pIC50 (Cathepsin D (Cat D); average IC50): < 3.40
–	–	–	7.15	7.96	< 3.40	COc1cc(Cl)cnc1C(=O)Nc1cc(F)c(F)c([C@]2(C)C[C@@H](C(F)(F)F)OC(N)=N2)c1 [Example 195, N-(3-((4S,6S)-2-amino-4-methyl-6-(trifluoromethyl)-5,6-dihydro-4H-1,3-oxazin-4-yl)-4,5-difluorophenyl)-5-chloro-3-methoxypicolinamide]	–
–	–	–	7.96	8.15	3.20	C[C@@]1(c2cc(NC(=O)c3nn(C(F)F)cc3Cl)cc(F)c2F)C[C@@H](C(F)(F)F)OC(N)=N1 [Example 196, N-(3-((4S,6S)-2-amino-4-methyl-6-(trifluoromethyl)-5,6-dihydro-4H-1,3-oxazin-4-yl)-4,5-difluorophenyl)-4-chloro-1-(difluoromethyl)-1H-pyrazole-3-carboxamide]	–
–	–	–	7.80	7.89	2.77	COCc1cc(Cl)cnc1C(=O)Nc1cc(F)c(F)c([C@]2(C)C[C@@H](C(F)(F)F)OC(N)=N2)c1 [Example 199, N-(3-((4S,6S)-2-amino-4-methyl-6-(trifluoromethyl)-5,6-dihydro-4H-1,3-oxazin-4-yl)-4,5-difluorophenyl)-5-chloro-3-(methoxymethyl)picolinamide]	–

The remaining lines, values behind:

SMILES	pIC50 [1, 3]	pIC50 [2, 4]	pIC50 (Cathepsin D (Cat D); [5])	pIC50 ([1]; average)	pIC50 [2, 7]	pIC50 (Cathepsin D (Cat D); average)	other results
C#CCOc1ccc(C(=O)Nc2cc(F)c(F)c([C@]3(CF)C[C@@H](C(F)(F)F)OC(N)=N3)c2)nc1 [Example 159, N-(3-((4S,6S)-2-amino-4-(fluoromethyl)-6-(trifluoromethyl)-5,6-dihydro-4H-1,3-oxazin-4-yl)-4,5-difluorophenyl)-5-(prop-2-yn-1-yloxy)picolinamide]	7.89	7.03	< 3.40	–	–	–	–
NC1=N[C@](CF)(c2cc(Nc3nccc4cc(Cl)cnc34)cc(F)c2F)C[C@@H](C(F)(F)F)O1 [Example 161, (4S,6S)-4-(5-((3-chloro-1,7-naphthyridin-8-yl)amino)-2,3-difluorophenyl)-4-(fluoromethyl)-6-(trifluoromethyl)-5,6-dihydro-4H-1,3-oxazin-2-amine]	7.64	6.27	< 3.40	–	–	–	–
COc1cc(C#N)cnc1C(=O)Nc1cc(F)c(F)c([C@]2(C)C[C@@H](C(F)(F)F)OC(N)=N2)c1 [Example 168, N-(3-((4S,6S)-2-amino-4-methyl-6-(trifluoromethyl)-5,6-dihydro-4H-1,3-oxazin-4-yl)-4,5-difluorophenyl)-5-cyano-3-methoxypicolinamide]	7.29	–	< 3.40	–	–	–	pIC50 [2, 6]: 8.21
Cc1cc(Cl)cnc1C(=O)Nc1cc(F)c(F)c([C@]2(C)C[C@@H](C(F)(F)F)OC(N)=N2)c1 [Example 170, N-(3-((4S,6S)-2-amino-4-methyl-6-(trifluoromethyl)-5,6-dihydro-4H-1,3-oxazin-4-yl)-4,5-difluorophenyl)-5-chloro-3-methylpicolinamide]	8.02	7.85	3.13	–	–	–	–
C[C@@]1(c2cc(NC(=O)c3ncc(Cl)cc3Cl)cc(F)c2F)C[C@@H](C(F)(F)F)OC(N)=N1 [Example 172, N-(3-((4S,6S)-2-amino-4-methyl-6-(trifluoromethyl)-5,6-dihydro-4H-1,3-oxazin-4-yl)-4,5-difluorophenyl)-3,5-dichloropicolinamide]	7.72	7.72	3.40	–	–	–	–
COc1cnc(C(=O)Nc2cc(F)c(F)c([C@]3(C)C[C@@H](C(F)(F)F)OC(N)=N3)c2)c(C)n1 [Example 173, N-(3-((4S,6S)-2-amino-4-methyl-6-(trifluoromethyl)-5,6-dihydro-4H-1,3-oxazin-4-yl)-4,5-difluorophenyl)-5-methoxy-3-methylpyrazine-2-carboxamide]	–	–	–	6.93	7.07	< 3.40	–
C[C@@]1(c2cc(NC(=O)c3ccc(Br)cn3)cc(F)c2F)C[C@@H](C(F)(F)F)OC(N)=N1 [Example 175, N-(3-((4S,6S)-2-amino-4-methyl-6-(trifluoromethyl)-5,6-dihydro-4H-1,3-oxazin-4-yl)-4,5-difluorophenyl)-5-bromopicolinamide]	–	–	–	7.66	8.18	3.37	–
C[C@@]1(c2cc(Nc3nccc4cc(Cl)cnc34)cc(F)c2F)C[C@@H](C(F)(F)F)OC(N)=N1 [Example 176, (4S,6S)-4-(5-((3-chloro-1,7-naphthyridin-8-yl)amino)-2,3-difluorophenyl)-4-methyl-6-(trifluoromethyl)-5,6-dihydro-4H-1,3-oxazin-2-amine]	7.68	6.99	3.98	–	–	–	–
C[C@@]1(c2cc(Nc3ncc(F)c4cc(C#N)cnc34)cc(F)c2F)C[C@@H](C(F)(F)F)OC(N)=N1 [Example 177, 8-((3-((4S,6S)-2-amino-4-methyl-6-(trifluoromethyl)-5,6-dihydro-4H-1,3-oxazin-4-yl)-4,5-difluorophenyl)amino)-5-fluoro-1,7-naphthyridine-3-carbonitrile]	7.52	6.56	< 5.31	–	–	–	–
C[C@@]1(c2cc(NC(=O)c3cnc(OCc4ncco4)cn3)cc(F)c2F)C[C@@H](C(F)(F)F)OC(N)=N1 [Example 204, N-(3-((4S,6S)-2-amino-4-methyl-6-(trifluoromethyl)-5,6-dihydro-4H-1,3-oxazin-4-yl)-4,5-difluorophenyl)-5-(oxazol-2-ylmethoxy)pyrazine-2-carboxamide]	–	–	–	8.22	–	2.98	pIC50 [2, 6]: 8.52
